Data published in patent US20240335541A1, “NANOMATERIALS COMPRISING DIAMINES” (Beam Therapeutics Inc., priority 2021, published 2024).

Key:
Assay type in all cases: physicochemical
[1] = LNP encapsulation efficiency, unlysed vs lysed LNPs, Qubit kit (Example 1 LNPs); conditions: LNPs prepared according to Example 1; total lipid to NA mass ratio 11.7
Procedure: Concentration of NA was determined by Qubit microRNA kit (for siRNA) or HS RNA kit (for mRNA) per manufacturer's instructions. Encapsulation efficiency was determined by measuring nucleic acid concentration in unlysed and lysed LNPs. Encapsulation efficiency was determined by measuring unlysed and lysed LNPs.

[2] = LNP encapsulation efficiency by Ribogreen assay (Example 16 LNPs); conditions: Example 16 LNPs: 47.5% Ionizable Lipid: 40% cholesterol: 2.5% PEG-2000 DMG: 10% DPSC, N/P 4-8
Procedure: (§1) LNPs were prepared with 47.5% Ionizable Lipid (e.g., a compound provided herein): 40% cholesterol: 2.5% PEG-2000 DMG: 10% DPSC and an N/P ratio range of 4-8. LNPs were formed by microfluidic mixing of the lipid and NA solutions using a Precision Nanosystems NanoAssemblr Spark or Benchtop series Instruments, according to the manufacturer's protocol. A ratio of aqueous to organic solvent of approximately 2:1 or 3:1 was maintained during mixing using differential flow rates. After mixing, LNPs were collected, diluted in phosphate buffer saline (PBS) or Tris-buffered saline (TBS) (approximately 1:1 v/v). Further buffer exchange was conducted using dialysis in PBS or TBS at 4° C. for 4 to 24 hours against a 20 kDa filter. After this initial dialysis, each individual LNP preparation was characterized via dynamic light scattering (DLS) to measure the size (e.g., diameter) and polydispersity. LNPs falling within specific diameter and polydispersity ranges were pooled, and further dialyzed against PBS or TBS at 4° C. for 1 to 4 hours against a 100 kDa dialysis cassette. After the second dialysis, LNPs were sterile filtered using 0.22 μm filter and stored at 4° C. for further use.
RNA concentration and encapsulation efficiency were determined by Ribogreen assay (BioTek Synergy LX plate reader).

[3] = LNP hydrodynamic diameter and polydispersity by DLS (Example 1 LNPs); conditions: LNPs prepared according to Example 1, total lipid to NA mass ratio 11.7
Procedure: LNPs were prepared with a total lipid to NA mass ratio of 11.7. LNPs were formed by microfluidic mixing of the lipid and NA solutions using a Precision Nanosystems NanoAssemblr Spark or Benchtop series Instruments, according to the manufacturers protocol. A ratio of aqueous to organic solvent of approximately 2:1 or 3:1 was maintained during mixing using differential flow rates. After mixing, LNPs were collected, diluted in PBS (approximately 1:1 v/v). Further buffer exchange was conducted using dialysis in PBS at 4° C. for 4 to 24 hours against a 20 kDa filter. After this initial dialysis, each individual LNP preparation was characterized via dynamic light scattering (DLS) to measure the size (e.g., diameter) and polydispersity. In addition, pKa of a subpopulation of LNPs was measured via a 2-(p-toluidino)-6-napthalene sulfonic acid (TNS) assay. LNPs falling within specific diameter and polydispersity ranges are pooled, and further dialyzed against phosphate buffer saline (PBS) at 4° C. for 1 to 4 hours against a 100 kDa dialysis cassette. After the second dialysis, LNPs were sterile filtered using […] filter and stored at 4° C. for further use.
DLS-LNP hydrodynamic diameter and polydispersity index (PDI) were measured using high throughput dynamic light scattering (DLS) (DynaPro plate reader II, Wyatt). LNPs were diluted 1×PBS to an appropriate concentration and analyzed.
Lipid nanoparticle components were dissolved in 100% ethanol at specified lipid component molar ratios. Nucleic acid (NA) cargo was dissolved in 10 mM citrate, 100 mM NaCl, pH 4.0, resulting in a concentration of NA cargo of approximately 0.22 mg/mL. In some embodiments, NA cargos included both a functional NA and a reporter DNA barcode mixed at mass ratios of 1:10 to 10:1 functional NA to barcode. LNPs were formulated with a total lipid to NA mass ratio of 11.7. LNPs were formed by microfluidic mixing of the lipid and NA solutions using a Precision Nanosystems NanoAssemblr Spark or Benchtop series Instruments, according to the manufacturer's protocol. A 2:1 or 3:1 ratio of aqueous to organic solvent was maintained during mixing using differential flow rates. After mixing, LNPs were collected, diluted in PBS (approximately 1:1 v/v), and further buffer exchange was conducted using dialysis in PBS at 4° C. for 8 to 24 hours against a 20 kDa filter. After this initial dialysis, each individual LNP formulation was characterized via DLS to measure the size and polydispersity, and the pKa of a subpopulation of LNPs is measured via TNS assay. After dialysis, LNPs were sterile filtered using 0.22 micron sterile filter and stored at 4° C. for further use.
LNP hydrodynamic diameter and polydispersity index (PDI) were measured using high throughput dynamic light scattering (DLS) (DynaPro plate reader II, Wyatt). LNPs were diluted 1×PBS to an appropriate concentration and analyzed.

[4] = LNP hydrodynamic diameter and PDI by DLS (Example 16 LNPs, Stunner); conditions: Example 16 LNPs: 47.5% Ionizable Lipid: 40% cholesterol: 2.5% PEG-2000 DMG: 10% DPSC, N/P 4-8
Procedure: as §1
LNP hydrodynamic diameter and polydispersity index (PDI) were measured using high throughput dynamic light scattering (DLS) (Stunner, Unchained Labs). LNPs were diluted 1×TBS or PBS to an appropriate concentration and analyzed.

Structure (SMILES)	Mean Encapsulation Efficiency [1] [%]	Mean Encapsulation Efficiency [2] [%]	Mean Diameter [3] [nm]	Mean PDI [3] [%]	Mean Diameter [4] [nm]	Mean PDI [4]
CC/C=C\CCCCOC(CCC(=O)OCCCCCCN(CCO)CCCN(CCCCCCCCCOC(=O)C(CCCC)CCCCCC)CCCCCCCCCOC(=O)C(CCCC)CCCCCC)OCCCC/C=C\CC (stereo not drawn) [Example 7-8]	85.4	61.1	165.2	19.3	91.0	0.11
CC/C=C\CCCCOC(CCC(=O)OCCCCCCN(CCCO)CCN(CCCCCCCCCOC(=O)C(CCCC)CCCCCC)CCCCCCCCCOC(=O)C(CCCC)CCCCCC)OCCCC/C=C\CC (stereo not drawn) [Example 7-21]	–	60.9	–	–	87.1	0.12
CC/C=C\CCCCOC(CCC(=O)OCCCCCCN(CCO)CCCN(CCCCCCCC(=O)OCCCCCCCCC)CCCCCCCC(=O)OCCCCCCCCC)OCCCC/C=C\CC [Example 7-6]	–	46.0	–	–	85.7	0.10
CC/C=C\CCCCOC(CCC(=O)OCCCCCCCN(CCCO)CCN(CCCCCCCCCOC(=O)C(CCCC)CCCCCC)CCCCCCCCCOC(=O)C(CCCC)CCCCCC)OCCCC/C=C\CC (stereo not drawn) [Example 7-27]	–	63.3	–	–	81.7	0.11
CC/C=C\CCCCOC(CCC(=O)OCCCCCCN(CCO)CCCN(CCCCCCOC(=O)C(CCCC)CCCCCC)CCCCCCOC(=O)C(CCCC)CCCCCC)OCCCC/C=C\CC (stereo not drawn) [Example 7-7]	–	57.4	–	–	83.4	0.08
CC/C=C\CCCCOC(CCC(=O)OCCCCCCN(CCO)CCCN(CCCCCCOC(=O)CCC(OCCCC/C=C\CC)OCCCC/C=C\CC)CCCCCCOC(=O)CCC(OCCCC/C=C\CC)OCCCC/C=C\CC)OCCCC/C=C\CC [Example 7-1]	–	80.8	–	–	90.2	0.12
CC/C=C\CCCCOC(CCC(=O)OCCCCCCN(CCCO)CCN(CCCCCCOC(=O)CCC(OCCCC/C=C\CC)OCCCC/C=C\CC)CCCCCCOC(=O)CCC(OCCCC/C=C\CC)OCCCC/C=C\CC)OCCCC/C=C\CC [Example 7-16]	–	81.8	–	–	91.3	0.11
CC/C=C\CCCCOC(CCC(=O)OCCCCCCCN(CCO)CCCN(CCCCCCOC(=O)C(CCCC)CCCCCC)CCCCCCOC(=O)C(CCCC)CCCCCC)OCCCC/C=C\CC (stereo not drawn) [Example 7-9]	–	69.4	–	–	89.2	0.11

Further lines, results first:

Mean Encapsulation Efficiency [1] [%]	Mean Encapsulation Efficiency [2] [%]	Mean Diameter [3] [nm]	Mean PDI [3] [%]	Mean Diameter [4] [nm]	Mean PDI [4]	Structure (SMILES)
–	72.4	–	–	92.7	0.12	CC/C=C\CCCCOC(CCC(=O)OCCCCCCCN(CCCCCCCOC(=O)CCC(OCCCC/C=C\CC)OCCCC/C=C\CC)CCCN(CCO)CCCCCCCCCOC(=O)C(CCCC)CCCCCC)OCCCC/C=C\CC (stereo not drawn) [Example 7-24, ((3-((9-((2-butyloctanoyl)oxy)nonyl)(2-hydroxyethyl)amino)propyl)azanediyl)bis(heptane-7,1-diyl) bis(4,4-bis(((Z)-oct-5-en-1-yl)oxy)butanoate)]
–	69.2	–	–	82.5	0.12	CC/C=C\CCCCOC(CCC(=O)OCCCCCCCN(CCCCCCCOC(=O)CCC(OCCCC/C=C\CC)OCCCC/C=C\CC)CCN(CCO)CCCCCCCCCOC(=O)C(CCCC)CCCCCC)OCCCC/C=C\CC (stereo not drawn) [Example 7-26, ((2-((9-((2-butyloctanoyl)oxy)nonyl)(2-hydroxyethyl)amino)ethyl)azanediyl)bis(heptane-7,1-diyl) bis(4,4-bis(((Z)-oct-5-en-1-yl)oxy)butanoate)]
97.2	–	85.9	10.8	–	–	CC/C=C\CCCCOC(CCC(=O)OCCCCCCCN(CCCO)CCN(CCCCCCCOC(=O)CCC(OCCCC/C=C\CC)OCCCC/C=C\CC)CCCCCCCOC(=O)CCC(OCCCC/C=C\CC)OCCCC/C=C\CC)OCCCC/C=C\CC [Example 7-17]
96.4	–	79.8	9.4	–	–	CC/C=C\CCCCOC(CCC(=O)OCCCCCCCN(CCO)CCN(CCCCCCCOC(=O)CCC(OCCCC/C=C\CC)OCCCC/C=C\CC)CCCCCCCOC(=O)CCC(OCCCC/C=C\CC)OCCCC/C=C\CC)OCCCC/C=C\CC [Example 7-11]
–	62.8	–	–	92.4	0.13	CC/C=C\CCCCOC(CCC(=O)OCCCCCCCN(CCO)CCCN(CCCCCCCCCOC(=O)C(CCCC)CCCCCC)CCCCCCCCCOC(=O)C(CCCC)CCCCCC)OCCCC/C=C\CC (stereo not drawn) [Example 7-25]
–	71.4	–	–	97.0	0.17	CC/C=C\CCCCOC(CCC(=O)OCCCCCCN(CCCO)CCN(CCCCCCOC(=O)C(CCCC)CCCCCC)CCCCCCOC(=O)C(CCCC)CCCCCC)OCCCC/C=C\CC (stereo not drawn) [Example 7-20]
–	49.6	–	–	98.8	0.11	CC/C=C\CCCCOC(CCC(=O)OCCCCCCCN(CCCCCCCOC(=O)CCC(OCCCC/C=C\CC)OCCCC/C=C\CC)CCCN(CCCO)CCCCCCCC(=O)OCCCCCCCCC)OCCCC/C=C\CC [Example 7-28, ((3-((3-hydroxypropyl)(8-(nonyloxy)-8-oxooctyl)amino)propyl)azanediyl)bis(heptane-7,1-diyl) bis(4,4-bis(((Z)-oct-5-en-1-yl)oxy)butanoate)]
–	49.0	–	–	81.3	0.12	CC/C=C\CCCCOC(CCC(=O)OCCCCCCN(CCO)CCCN(CCCCCC(=O)OCCCCCCCCC)CCCCCC(=O)OCCCCCCCCC)OCCCC/C=C\CC [Example 7-5, dinonyl 6,6′-((3-((6-((4,4-bis(((Z)-oct-5-en-1-yl)oxy)butanoyl)oxy)hexyl)(2-hydroxyethyl)amino)propyl)azanediyl)dihexanoate]
–	85.1	–	–	69.1	0.13	CC/C=C\CCCCOC(CCC(=O)OCCCCCCN(CCCCCCOC(=O)CCC(OCCCC/C=C\CC)OCCCC/C=C\CC)CCCN(CCO)CCCCCCCC(=O)OCCCCCCCCC)OCCCC/C=C\CC [Example 7-3, ((3-((2-hydroxyethyl)(8-(nonyloxy)-8-oxooctyl)amino)propyl)azanediyl)bis(hexane-6,1-diyl) bis(4,4-bis(((Z)-oct-5-en-1-yl)oxy)butanoate)]
–	83.2	–	–	95.4	0.13	CC/C=C\CCCCOC(CCC(=O)OCCCCCCCN(CCCO)CCCN(CCCCCCCOC(=O)CCC(OCCCC/C=C\CC)OCCCC/C=C\CC)CCCCCCCOC(=O)CCC(OCCCC/C=C\CC)OCCCC/C=C\CC)OCCCC/C=C\CC [Example 7-29]
